According to paper PMC8097418, “In Vitro and In Vivo Antibacterial Activities of a Novel Quinolone Compound, OPS-2071, against Clostridioides difficile” (Antimicrobial Agents and Chemotherapy, 2021):
≈ marks a conversion by molar mass, not a printed value. Like-named read-outs stand apart in the source and are kept apart here.

How the values were obtained:
[1] = test system: 54 clinically isolated C. difficile strains; experiment: MIC by agar dilution against 54 clinically isolated strains; format: cell-based, Clostridioides difficile; conditions: Clostridioides difficile, 54 clinically isolated C. difficile strains; for MIC50: read-out: MIC50
Procedure: (§1) MICs obtained using the agar dilution method were determined visually as described for the CLSI method ([41], [42]). MICs obtained using the broth dilution method were determined visually based on the CLSI method except for using Gifu anaerobic medium (GAM) broth instead of supplemented Brucella broth ([41], [42]).

[2] = test system: hypervirulent and nonhypervirulent strains of C. difficile (62 strains); experiment: MIC distribution against 20 hypervirulent and 42 nonhypervirulent strains; format: cell-based, Clostridioides difficile
[3] = test system: 10 clinical isolates of C. difficile; experiment: MIC (broth dilution) and MBC testing, 10 clinical isolates; format: cell-based, Clostridioides difficile; conditions: for MBC Range: >99.9% reduction within 48 h; for MIC90 / MBC: Clostridioides difficile; for MBC: read-out: MBC90
Procedure: In this test, MIC testing was performed using the broth dilution method as recommended in the CLSI ([41]). After the MICs were determined, 10 μl of the bacterial suspension from the MIC test tube was inoculated onto agar plates and incubated at 37°C. The bacterial colonies were then counted and bacterial numbers were calculated. The MBC was considered to be the lowest concentration of the antibiotics that prevented growth and reduced the inoculum by >99.9% within 48 h, irrespective of counts of survivors at higher antibiotic concentrations.

C. difficile ATCC 700057 [4] = experiment: MIC by broth dilution (GAM broth); format: cell-based, Clostridioides difficile
Procedure: as §1

C. difficile ATCC 700057 [5] = experiment: Killing kinetics (time-kill curves); format: cell-based, Clostridioides difficile; conditions: time-kill, up to 48 h
Procedure: The test tubes were incubated for 48 h. The CFU/ml values of the bacterial suspensions were calculated at 0, 2, 4, 6, 24, and 48 h by culturing 0.1-ml samples of serial 10-fold dilutions on GAM agar plates at 37°C under anaerobic conditions and then counting the number of growing colonies. The CFU/ml value at each time point is from one sample of datum.

C. difficile ATCC 700057 [6] = experiment: MIC by agar dilution (CLSI) against quality control strain; format: cell-based, Clostridioides difficile
Procedure: as §1

C. difficile ATCC 700057 [7] = format: cell-based, Clostridioides difficile
C. difficile ATCC 700057 [8] = experiment: Mutant prevention concentration; format: cell-based, Clostridioides difficile; conditions: approximately 10^10 CFU, 3 days
Procedure: The mutant prevention concentration was measured by plating approximately 10^10 CFU of C. difficile ATCC 700057 onto a GAM agar plate containing the test agent. Inoculated plates were incubated for 3 days, and the MIC for each antibiotic that prevented the growth of colonies was determined using the agar dilution method as described by the CLSI ([41]). The MIC values of grown colonies were compared to determine which bacteria were resistant. The MPC was defined as the lowest concentration that prevented the growth of resistant bacteria.

C. difficile ATCC 700057 [9] = experiment: Postantibiotic effect (PAE); format: cell-based, Clostridioides difficile; conditions: for Postantibiotic effect: 1 h exposure
Procedure: C. difficile ATCC 700057 was cultured in GAM agar and adjusted in GAM broth to approximately 10^6 CFU/ml. The bacterial suspensions were preincubated at 37°C for 1 h. […] After preincubation, test and reference solutions were added to each bacterial suspension in a test tube, and the suspensions were cultured for 1 h. After exposure to the test compounds, bacterial suspensions were washed with GAM broth and cultured for 6 h. […] The PAE was defined according to Craig and Gudmundsson as PAE = T − C, where T is the time required for the viable counts of the exposed bacteria to increase by 1 log10 above the counts observed immediately after washing, and C is the corresponding time for the antibiotic unexposed controls ([44]).

C. difficile ATCC 43255 [10] = experiment: In vivo hamster model of C. difficile infection; parameters: species or system golden Syrian hamsters
Procedure: C. difficile ATCC 43255 was cultured on GAM agar, and a bacterial suspension was prepared in saline ([26]). […] Hamsters were infected using oral gavage with 0.5 ml of suspension containing approximately 10^6 CFU of C. difficile (day −1). The next day, the animals were administered clindamycin phosphate (0.2 mg/ml in water) by oral gavage at a dose of 5 ml/kg of body weight, for a final dose of 1 mg/kg (day 0). The animals were allocated to the test groups using a stratified randomization method based on the body weight of each infected animal. The test compounds were administered by oral gavage once daily for 5 days (OPS-2071, 0.008 to 1 mg/kg; fidaxomicin, 0.04 mg/kg to 5 mg/kg; vancomycin, 0.04 to 5 mg/kg [5-fold dilution]). Infected control animals were administered 5% (wt/vol) gum arabic solution by oral gavage. […] The cecal contents of dead animals were tested for toxin A and toxin B using C.Diff Quik Chek Complete (Abbott Diagnostics Medical Co., Ltd., Tokyo, Japan) to confirm that the death of the animal was due to CDI.
The statistical significance of OPS-2071, fidaxomicin, and vancomycin treatment was analyzed at all doses against vehicle. Survival curves were estimated for each group using the Kaplan-Meier method. Differences in survival homogeneity in each group were evaluated with a log-rank test with Dunnett-type (two-sided) comparison.

C. difficile ATCC 43255 [11] = experiment: MIC against the infection strain; format: cell-based, Clostridioides difficile
C. difficile ATCC 700057 [12] = experiment: Effect of pH on MIC (agar dilution); format: cell-based, Clostridioides difficile; conditions: Clostridioides difficile
[13] = cited from earlier work
C. difficile ATCC 43255 [14] = test system: C. difficile ATCC 43255; parameters: method as in PMID 22869573; conditions: cited from earlier work
[15] = Clostridioides difficile, hypervirulent strains (n = 20)
[16] = Clostridioides difficile, nonhypervirulent strains (n = 42)
[17] = nonhypervirulent strains (n = 42)
[18] = 10 clinical isolates, broth dilution
[19] = Clostridioides difficile, ATCC700057, broth dilution, retested for the time-kill assay, read-out: MIC

Work on `Cc1ncc([N+](=O)[O-])n1CCO` [Metronidazole] yielded an MIC90 [1] of 4 µg/mL (≈ 23.4 µM), an MIC50 [1] of 2 µg/mL (≈ 11.7 µM) and an MIC50 [2, 15] of 0.5 µg/mL (≈ 2.92 µM). It also gave an MIC90 [2, 15] of 1 µg/mL (≈ 5.84 µM), an MIC50 [2, 16] of 0.25 µg/mL (≈ 1.46 µM) and an MIC90 [2, 16] of 0.5 µg/mL (≈ 2.92 µM). The “Cumulative percentage of strains” value ([2]; Non-hyp (n = 42), MIC […] μg/ml) was 100%, the MIC range ([2]; hypervirulent strains (n = 20)) was 0.25 to 16 µg/mL and the MIC range [2, 17] was 0.25 to 1 µg/mL. For the same compound, the “MBC Range” value ([3]; 10 clinical isolates) was 1 to 4 µg/mL, the “MIC range” value [3, 18] was 1 to 4 µg/mL and the MIC90 ([3]; 10 clinical isolates, broth dilution, read-out: MIC90) was 4 µg/mL (≈ 23.4 µM). The MBC ([3]; 10 clinical isolates) was 4 µg/mL (≈ 23.4 µM), the MIC (C. difficile ATCC 700057 [4]; [19]) was 0.5 µg/mL (≈ 2.92 µM) and the “concentration needed for an undetectable level to be reached” value (C. difficile ATCC 700057 [5]) was “over 2 fold MIC”.

Compound `CN[C@H](CC(C)C)C(=O)N[C@H]1C(=O)N[C@@H](CC(N)=O)C(=O)N[C@H]2C(=O)N[C@H]3C(=O)N[C@H](C(=O)N[C@H](C(=O)O)c4cc(O)cc(O)c4-c4cc3ccc4O)[C@H](O)c3ccc(c(Cl)c3)Oc3cc2cc(c3O[C@@H]2O[C@H](CO)[C@@H](O)[C@H](O)[C@H]2O[C@H]2C[C@](C)(N)[C@H](O)[C@H](C)O2)Oc2ccc(cc2Cl)[C@H]1O` [Vancomycin] has an MIC90 [1] of 4 µg/mL (≈ 2.76 µM), an MIC50 [1] of 2 µg/mL (≈ 1.38 µM) and an MIC50 ([2]; Clostridioides difficile, hypervirulent strains (n = 20), read-out: MIC50) of 1 µg/mL (≈ 0.69 µM). For the same compound, the MIC90 ([2]; Clostridioides difficile, hypervirulent strains (n = 20), read-out: MIC90) was 1 µg/mL (≈ 0.69 µM), the MIC90 ([2]; Clostridioides difficile, nonhypervirulent strains (n = 42), read-out: MIC90) was 2 µg/mL (≈ 1.38 µM) and the MIC range ([2]; hypervirulent strains (n = 20)) was 1 to 2 µg/mL. For the same compound, the MIC50 [2, 17] was 1 µg/mL (≈ 0.69 µM), the MIC range [2, 17] was 0.5 to 4 µg/mL and the “MBC Range” value ([3]; 10 clinical isolates) was 4 to 8 µg/mL. The “MIC range” value [3, 18] was 2 to 4 µg/mL, the MIC90 [3] was 4 µg/mL (≈ 2.76 µM) and the MBC [3] was 8 µg/mL (≈ 5.52 µM). It also gave an MIC (C. difficile ATCC 700057 [6]; Clostridioides difficile, ATCC700057, quality control strain ATCC 700057, CLSI method, read-out: MIC) of 2 µg/mL (≈ 1.38 µM), an MIC (C. difficile ATCC 700057 [6]; agar dilution, determined for the spontaneous resistance assay) of 2 µg/mL (≈ 1.38 µM) and an MIC (C. difficile ATCC 700057 [4]; [19]) of 4 µg/mL (≈ 2.76 µM). For the same compound, the MIC (C. difficile ATCC 700057 [4]; broth method, determined for the PAE assay) was 4 µg/mL (≈ 2.76 µM), the “concentration needed for an undetectable level to be reached” value (C. difficile ATCC 700057 [5]) was “over 2 fold MIC” and the “Frequency of spontaneous resistance” value (C. difficile ATCC 700057 [7]; 4× MIC) was <9.17 × 10^–9. The “Frequency of spontaneous resistance” value (C. difficile ATCC 700057 [7]; 16× MIC) was <9.17 × 10^–9, the “Frequency of spontaneous resistance” value (C. difficile ATCC 700057 [7]; 64× MIC) was <9.17 × 10^–9 and the “mutant prevention concentration (MPC)” value (C. difficile ATCC 700057 [8]) was 8 µg/mL. The “PAEs at 4- and 8-fold the MIC” value (C. difficile ATCC 700057 [9]; 4- and 8-fold the MIC) was 1.03 to 1.25 h, the Postantibiotic effect (C. difficile ATCC 700057 [9]; 4× MIC) was 1.03 h and the Postantibiotic effect (C. difficile ATCC 700057 [9]; 8× MIC) was 1.25 h. For the same compound, the “50% effective dose (ED50)” value (C. difficile ATCC 43255 [10]; survival on day 20, oral once daily for 5 days, probit method) was 1.22 mg/kg/day, the “dosages with significant efficacy compared with vehicle control” value (C. difficile ATCC 43255 [10]; survival, log-rank test) was at least 1 mg/kg and the MIC (C. difficile ATCC 43255 [11]) was 2 µg/mL (≈ 1.38 µM). For the same compound, the MIC (C. difficile ATCC 700057 [12]; ATCC700057, pH 6) was 2 µg/mL (≈ 1.38 µM), the MIC (C. difficile ATCC 700057 [12]; ATCC700057, pH 7) was 2 µg/mL (≈ 1.38 µM) and the MIC (C. difficile ATCC 700057 [12]; ATCC700057, pH 8) was 2 µg/mL (≈ 1.38 µM). For the same compound, the oral bioavailability [13] was under 10%.

For `CCC[C@@H]1C[C@@H](C(=O)N[C@@H]([C@H]2O[C@H](SC)[C@H](O)[C@@H](O)[C@H]2O)[C@H](C)Cl)N(C)C1` [clindamycin], the MIC (C. difficile ATCC 43255 [14]) is listed as 8 µg/mL (≈ 18.8 µM).
